Assays:
A549 cells = assay: in vitro antiproliferation assay, A549 (lung); format: cell-based
Procedure, shortened: (§1)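 Standard in vitro antiproliferation assays on tumour cell lines, including A549 and H1299 (both lung); IC50 values determined.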

H1299 cells = assay: in vitro antiproliferation assay, H1299 (lung); format: cell-based
Procedure, shortened: as §1

[1] = A549 (lung) cells, antiproliferation
[2] = H1299 (lung) cells, antiproliferation
[3] = IC50 class against A549 (lung) tumor cells
[4] = IC50 class against H1299 (lung) tumor cells

IC50 (A549 cells; [1]) [µM]	IC50 (H1299 cells; [2]) [µM]	IC50 (A549 cells; [3]) [µM]	IC50 (H1299 cells; [4]) [µM]	SMILES
≤ 20	≤ 20			CNC(=O)COc1cccc(Nc2ncc(F)c(Nc3cccc(CN)c3)n2)c1 [compound 970]
≤ 20	≤ 20			NC(=O)COc1ccc(Nc2nc(Nc3cccc(O)c3)ncc2F)cc1 [compound 974]
≤ 20	≤ 20			O=C(COc1cccc(Nc2ncc(F)c(Nc3ccc(N4CCOCC4)cc3)n2)c1)NC1CC1 [compound 988]
≤ 20	≤ 20			COC(=O)COc1cccc(Nc2ncc(F)c(Nc3ccc(N4CCOCC4)cc3)n2)c1 [compound 989]
≤ 20	≤ 20			O=C(COc1cccc(Nc2ncc(F)c(Nc3ccc(N4CCOCC4)cc3)n2)c1)NC1CCC1 [compound 990]
> 20	> 20			CNC(=O)COc1cccc(Nc2ncc(F)c(Nc3ccc(N4CCOCC4)cc3)n2)c1 [compound 992]
≤ 20	≤ 20			CNC(=O)COc1cccc(Nc2ncc(F)c(Nc3ccc(N4CCN(C(=O)OC)CC4)cc3)n2)c1 [compound 993]
≤ 20	≤ 20			Fc1cnc(Nc2cccc(-c3ncco3)c2)nc1Nc1cccc(-c2ncco2)c1 [compound 995]
> 20	> 20			CCOC(=O)COc1cccc(Nc2ncc(F)c(Nc3cc(Cl)c(O)c(Cl)c3)n2)c1 [compound 999]
> 20	> 20			O=C(COc1cccc(Nc2ncc(F)c(Nc3cc(Cl)c(O)c(Cl)c3)n2)c1)N1CCNCC1 [compound 1001]
≤ 20	≤ 20			CC(C)(C)OC(=O)NCc1ccc(Nc2ncc(F)c(Nc3ccc(CNC(=O)OC(C)(C)C)cc3)n2)cc1 [compound 1012]
≤ 20	≤ 20			NCc1ccc(Nc2ncc(F)c(Nc3ccc(CN)cc3)n2)cc1 [compound 1013]
≤ 20	≤ 20			CC(C)(C)OC(=O)NCc1cccc(Nc2ncc(F)c(Nc3cccc(CNC(=O)OC(C)(C)C)c3)n2)c1 [compound 1015]
≤ 20	≤ 20			CCN(CC)CCNC(=O)c1ccc(Nc2ncc(F)c(Nc3ccc(OC)c(Cl)c3)n2)cc1 [compound 1021]
≤ 20	≤ 20			COc1ccc(Nc2nc(Nc3ccc(C(N)=O)cc3)ncc2F)cc1Cl [compound 1022]
≤ 20	≤ 20			COc1ccc(Nc2nc(Nc3ccc(CNC(=O)OC(C)(C)C)cc3)ncc2F)cc1Cl [compound 1023]
> 20	≤ 20			CNC(=O)COc1ccc(Nc2ncc(F)c(Nc3ccc(OC)c(Cl)c3)n2)cc1 [compound 1025]

IC50 (A549 cells; [1]) [µM]	IC50 (H1299 cells; [2]) [µM]	IC50 (A549 cells; [3]) [µM]	IC50 (H1299 cells; [4]) [µM]	SMILES
> 20	≤ 20			NC(=O)c1ccc(Nc2nc(Nc3cccc(O)c3)ncc2F)cc1 [compound 1026]
≤ 20	≤ 20			NC(=O)c1ccc(Nc2nc(Nc3cc(Cl)c(O)c(Cl)c3)ncc2F)cc1 [compound 1027]
≤ 20	≤ 20			COc1ccc(Nc2ncc(F)c(Nc3ccc(C(N)=O)cc3)n2)cc1Cl [compound 1028]
> 20	> 20			NC(=O)c1ccc(Nc2ncc(F)c(Nc3ccc(C(N)=O)cc3)n2)cc1 [compound 1029]
≤ 20	≤ 20			CN(c1ccc(Cl)c(Cl)c1)c1nc(Nc2ccc(C(N)=O)cc2)ncc1F [compound 1030]
≤ 20	≤ 20			CCN(CC)CCNC(=O)c1ccc(Nc2ncc(F)c(N(C)c3ccc(Cl)c(Cl)c3)n2)cc1 [compound 1031]
> 20	> 20			COc1cc(Nc2nc(Nc3ccc(C(N)=O)cc3)ncc2F)ccc1Cl [compound 1032]
≤ 20	≤ 20			COc1ccc(Nc2nc(Nc3ccc(C(N)=O)c(Cl)c3)ncc2F)cc1Cl [compound 1033]
> 20	≤ 20			COc1cc(Nc2nc(Nc3ccc(C(N)=O)c(Cl)c3)ncc2F)ccc1Cl [compound 1034]
≤ 20	≤ 20			CCN(CC)CCNC(=O)c1ccc(Nc2ncc(F)c(Nc3ccc(Cl)c(OC)c3)n2)cc1 [compound 1035]
≤ 20	≤ 20			NC(=O)c1ccc(Nc2ncc(F)c(Nc3ccccc3)n2)cc1 [compound 1036]
		≤ 20	≤ 20	CNc1ncc(F)c(N(C)c2ccc3c(c2)OCCO3)n1 [compound 1038]
		≤ 20	≤ 20	CN(C)c1ncc(F)c(N(C)c2ccc3c(c2)OCCO3)n1 [compound 1039]
		≤ 20	≤ 20	CN(c1ccc2c(c1)OCCO2)c1nc(NCCO)ncc1F [compound 1040]
		≤ 20	≤ 20	CC(C)Nc1ncc(F)c(N(C)c2ccc3c(c2)OCCO3)n1 [compound 1041]
		> 20	≤ 20	CN(c1ccc2c(c1)OCCO2)c1nc(N(CCO)CCO)ncc1F [compound 1042]

— patent US8809341B2, “2,4-pyrimidinediamine compounds and uses as anti-proliferative agents” (Rigel Pharmaceuticals, Inc., priority 2003, dated 2014)
